{
  "source": "patent US20050169908A1",
  "about": "“Use of aerosolized antithrombin to treat acute lung injury” (priority 2004, published 2005)",
  "key": {"[1]": {"assay": "Blood counts (WBC, platelets) after injury", "type": "in vivo, sheep", "excerpt": "(§1) The Animal Care and Use Committee of The University of Texas Medical Branch approved the experiments reported in this manuscript. All animals were handled within the guidelines established by the American Physiological Society and the National Institutes of Health. Twenty four female sheep were surgically prepared for study under halothane anesthesia as previously described (9). After measurement of baseline cardiovascular data, sheep received a combination injury of smoke inhalation and bacteria instillation as previously described (3).\n(§2) Briefly, P. aeruginosa (5×10^9/kg) was instilled intrabronchially after the cotton smoke exposure (4 sets of 12 breaths, <40° C.). After the smoke inhalation and bacterial instillation, animals were randomly assigned for the two treatment groups, ATIII nebulization group (n=6), argatroban-nebulization group (n=8), and saline nebulization control group (n=10). All animals were mechanically ventilated with 100% oxygen throughout the 24-h study (Tidal volume 12-15 ml/kg, 30 breaths/min, PEEP 7.5 cmH2O). Tidal volume was adjusted to maintain PaCO2 normal. The Ringer's lactate solution was injected in sufficient volume to prevent the hematocrit from rising. Initially, 2 ml/kg/h of Ringer's lactate was infused, and we adjusted the in rate up to 10 ml/kg/h based on the hematocrit levels.\n(§3) Recombinant human antithrombin (rhAT) was dissolved in distilled water (250 mg/30 mL). Then, the ATIII solution was mixed with 60 mL saline and 15 mL of the mixed solution containing 41.7 mg ATIII was nebulized every 4 hrs. […] The control group received 15 ml saline nebulization as the same fashion. The solutions were nebulized by an ultrasonic nebulizer (Ultra-Neb99, DeVilbiss Co., Somerset, Pa.), which was connected to the tracheobronchial tree as shown previously (10). The size of the particles obtained by the nebulizer is reported less than 4 microns. The nebulization was started one hour after the insult and every 4 hrs thereafter.\nArterial blood was cultured to test the bacteremia (Septi-check, Becton Dickinson, Sparks, Md.). Heparinized blood samples were carefully withdrawn from the femoral artery catheter at baseline and at 3, 6, 12, and 24 hrs."}, "[2]": {"system": "smoke inhalation injury followed by pneumonia", "assay": "Pulmonary gas exchange (PaO2/FiO2 ratio, pulmonary shunt fraction) after smoke inhalation and pneumonia in sheep", "type": "in vivo", "conditions": "nebulized every 4 hrs, 24-h study; vs saline-treated group (FIG. 1B)", "protocol": "Recombinantly produced ATIII was dissolved in saline (42 mg/ml). Female sheep (n=24) were used. After the 48 breaths of cotton smoke (<40° C.), P. aeruginosa (5×10^11 CFU) was instilled in the both lungs. All the animals were mechanically ventilated by 100% O2 (Tidal volume 15 ml/kg, 30 breaths/min, PEEP 5 cmH2O). […] No animals died during the study.\nas §1\nBriefly, P. aeruginosa (5×10^9/kg) was instilled intrabronchially after the cotton smoke exposure (4 sets of 12 breaths, <40° C.). […]\n(§4) The statistical software StatView 5.0 (SAS Institute, Cary, N.C.) was used to perform the analysis. Data are expressed as means±SEM. Repeated measured analysis of variance (ANOVA) or ANOVA with Tuckey's post hoc test was used to compare data among the groups. […]"}, "P. aeruginosa": {"system": "P. aeruginosa", "assay": "Arterial blood culture for bacteremia", "type": "in vivo, sheep", "conditions": "during the 24 h study; no statistical difference from saline-treated group", "excerpt": "as §1\nas §2, with “levels. […]” for “levels.”"}, "[3]": {"system": "smoke inhalation injury followed by pneumonia", "assay": "Lung histopathology scores 24 h after smoke and bacterial challenge", "type": "in vivo, sheep", "conditions": "vs saline control", "excerpt": "as §1, §2\nRecombinant human antithrombin (rhAT) was dissolved in distilled water (250 mg/30 mL). Then, the ATIII solution was mixed with 60 mL saline and 15 mL of the mixed solution containing 41.7 mg ATIII was nebulized every 4 hrs. […] The control group received 15 ml saline nebulization as the same fashion. […]\n(§5) A lung slice from the right lower lobe was histologically scored by a pathologist who was unaware of animal grouping (5). […] Airway obstruction by cast formation was also evaluated as previously described (3).\nas §4"}, "[4]": {"system": "smoke inhalation injury followed by pneumonia", "assay": "Plasma nitrate/nitrite (NOx) levels", "type": "in vivo, sheep", "conditions": "over 24 h; vs saline-treated group (FIG. 6)", "excerpt": "as §1\nas §2, with “Initially, 2 ml/kg/h of Ringer's lactate was infused, and we adjusted the in rate up to 10 ml/kg/h based on the hematocrit levels.” left out\nThe concentration of NOx (total amount of nitric oxide metabolites) in plasma was measured with a chemiluminescent NO analyser (Antek, model 7020) as previously described (11)."}, "[5]": {"system": "smoke inhalation injury followed by pneumonia", "assay": "Microscopic evaluation of airway obstruction by cast formation", "type": "in vivo, sheep", "excerpt": "as §1, §2\nas §3, with “The nebulization was started one hour after the insult and every 4 hrs thereafter.” left out\nas §5"}, "[6]": {"conditions": "24 h, vs saline treated group (FIG. 4)"}},
  "data": [
    {"smiles": "CC1CNc2c(cccc2S(=O)(=O)N[C@@H](CCCNC(=N)N)C(=O)N2CC[C@@H](C)C[C@@H]2C(=O)O)C1", "note": "(stereo partly shown) [Argatroban]", "values": [
      {"measurement": "Platelets", "setting": "[1]; 24 hrs after injury, Mean ± SE", "result": "297 ± 78 ×10^3/μL"},
      {"measurement": "WBC", "setting": "[1]; 24 hrs after injury, Mean ± SE", "result": "2.08 ± 0.81 ×10^3/μl"},
      {"measurement": "decrease in leukocyte number 24 h after the injury", "setting": "[1]; in words, Table 1", "result": "did not affect"},
      {"measurement": "decrease in platelet count after the injury", "setting": "[1]; in words, Table 1", "result": "slightly prevented"},
      {"measurement": "increase in pulmonary shunt fraction after the insult", "setting": "[2]", "result": "significantly less"},
      {"measurement": "animals with P. aeruginosa detected in arterial blood culture", "setting": "P. aeruginosa", "result": 0, "unit": "%"},
      {"measurement": "hemorrhage score", "setting": "[3]", "result": "not higher but less"},
      {"measurement": "individual histology scores in congestion, edema, inflammation, and hemorrhage (scale 0-4)", "setting": "[3]", "result": "almost the same scores as saline control"},
      {"measurement": "total histology score (maximum 16)", "setting": "[3]", "result": "did not attenuate"},
      {"measurement": "increase in plasma NOx levels", "setting": "[4]", "result": "not a statistical difference"},
      {"measurement": "airway obstruction in bronchi levels", "setting": "[5]; [6]", "result": "inhibited the obstruction significantly"},
      {"measurement": "airway obstruction in bronchiole levels", "setting": "[5]; [6]", "result": "inhibited the obstruction significantly"},
      {"measurement": "prevention of cast formation (airway obstruction), comparison of the two agents", "setting": "[5]; argatroban vs rhAT", "result": "more effective in preventing cast formation than rhAT"}
    ]}
  ]
}
